Work on Cl.OC(CCCN1CCCCC1)(c1ccccc1)c1ccccc1 yielded a solubility (mole fraction) (in DMAc, 278.15 K) of 0.00189, a solubility (mole fraction) (in DMAc, 283.15 K) of 0.00221 and a solubility (mole fraction) (in DMAc, 288.15 K) of 0.00254. It also gave a solubility (mole fraction) (in DMAc, 293.15 K) of 0.00305, a solubility (mole fraction) (in DMAc, 298.15 K) of 0.00357 and a solubility (mole fraction) (in DMAc, 303.15 K) of 0.00407. The solubility (mole fraction) (in DMAc, 308.15 K) was 0.00457, the solubility (mole fraction) (in DMAc, 313.15 K) was 0.00525 and the solubility (mole fraction) (in DMAc, 318.15 K) was 0.00596. The solubility (mole fraction) (in DMAc, 323.15 K) was 0.00697, the solubility (mole fraction) (in DMF, 278.15 K) was 0.00285 and the solubility (mole fraction) (in DMF, 283.15 K) was 0.00316. It also gave a solubility (mole fraction) (in DMF, 288.15 K) of 0.00357, a solubility (mole fraction) (in DMF, 293.15 K) of 0.00408 and a solubility (mole fraction) (in DMF, 298.15 K) of 0.00466. It also gave a solubility (mole fraction) (in DMF, 303.15 K) of 0.00515, a solubility (mole fraction) (in DMF, 308.15 K) of 0.00615 and a solubility (mole fraction) (in DMF, 313.15 K) of 0.00688. It also gave a solubility (mole fraction) (in DMF, 318.15 K) of 0.00811, a solubility (mole fraction) (in DMF, 323.15 K) of 0.00923 and a solubility (mole fraction) (in DMSO, 293.15 K) of 0.0121. For the same compound, the solubility (mole fraction) (in DMSO, 298.15 K) was 0.0134, the solubility (mole fraction) (in DMSO, 303.15 K) was 0.0148 and the solubility (mole fraction) (in DMSO, 308.15 K) was 0.0167. For the same compound, the solubility (mole fraction) (in DMSO, 313.15 K) was 0.019, the solubility (mole fraction) (in DMSO, 318.15 K) was 0.0213 and the solubility (mole fraction) (in DMSO, 323.15 K) was 0.0242. The solubility (mole fraction) (in NMP, 278.15 K) was 0.00427, the solubility (mole fraction) (in NMP, 283.15 K) was 0.00492 and the solubility (mole fraction) (in NMP, 288.15 K) was 0.0056. For the same compound, the solubility (mole fraction) (in NMP, 293.15 K) was 0.00616, the solubility (mole fraction) (in NMP, 298.15 K) was 0.00725 and the solubility (mole fraction) (in NMP, 303.15 K) was 0.00826. The solubility (mole fraction) (in NMP, 308.15 K) was 0.00921, the solubility (mole fraction) (in NMP, 313.15 K) was 0.0104 and the solubility (mole fraction) (in NMP, 318.15 K) was 0.012. It also gave a solubility (mole fraction) (in NMP, 323.15 K) of 0.0141, a solubility (mole fraction) (in acetic acid, 293.15 K) of 0.00434 and a solubility (mole fraction) (in acetic acid, 298.15 K) of 0.00601. It also gave a solubility (mole fraction) (in acetic acid, 303.15 K) of 0.00965, a solubility (mole fraction) (in acetic acid, 308.15 K) of 0.016 and a solubility (mole fraction) (in acetic acid, 313.15 K) of 0.0263. For the same compound, the solubility (mole fraction) (in acetic acid, 318.15 K) was 0.0428, the solubility (mole fraction) (in acetic acid, 323.15 K) was 0.0632 and the solubility (mole fraction) (in acetonitrile, 278.15 K) was 0.000127. It also gave a solubility (mole fraction) (in acetonitrile, 283.15 K) of 0.00016, a solubility (mole fraction) (in acetonitrile, 288.15 K) of 0.000224 and a solubility (mole fraction) (in acetonitrile, 293.15 K) of 0.000306. For the same compound, the solubility (mole fraction) (in acetonitrile, 298.15 K) was 0.000412, the solubility (mole fraction) (in acetonitrile, 303.15 K) was 0.000497 and the solubility (mole fraction) (in acetonitrile, 308.15 K) was 0.000623. For the same compound, the solubility (mole fraction) (in acetonitrile, 313.15 K) was 0.000747, the solubility (mole fraction) (in acetonitrile, 318.15 K) was 0.000892 and the solubility (mole fraction) (in acetonitrile, 323.15 K) was 0.00105. For the same compound, the solubility (mole fraction) (in ethanol, 278.15 K) was 0.00161, the solubility (mole fraction) (in ethanol, 283.15 K) was 0.00196 and the solubility (mole fraction) (in ethanol, 288.15 K) was 0.00227. The solubility (mole fraction) (in ethanol, 293.15 K) was 0.00275, the solubility (mole fraction) (in ethanol, 298.15 K) was 0.00336 and the solubility (mole fraction) (in ethanol, 303.15 K) was 0.00405. For the same compound, the solubility (mole fraction) (in ethanol, 308.15 K) was 0.00485, the solubility (mole fraction) (in ethanol, 313.15 K) was 0.00585 and the solubility (mole fraction) (in ethanol, 318.15 K) was 0.00706. It also gave a solubility (mole fraction) (in ethanol, 323.15 K) of 0.00867, a solubility (mole fraction) (in methanol, 278.15 K) of 0.00929 and a solubility (mole fraction) (in methanol, 283.15 K) of 0.0109. For the same compound, the solubility (mole fraction) (in methanol, 288.15 K) was 0.0127, the solubility (mole fraction) (in methanol, 293.15 K) was 0.0152 and the solubility (mole fraction) (in methanol, 298.15 K) was 0.0177. For the same compound, the solubility (mole fraction) (in methanol, 303.15 K) was 0.0207, the solubility (mole fraction) (in methanol, 308.15 K) was 0.0245 and the solubility (mole fraction) (in methanol, 313.15 K) was 0.0285. It also gave a solubility (mole fraction) (in methanol, 318.15 K) of 0.0337, a solubility (mole fraction) (in methanol, 323.15 K) of 0.0397 and a solubility (mole fraction) (in n-butanol, 278.15 K) of 0.000548. It also gave a solubility (mole fraction) (in n-butanol, 283.15 K) of 0.000685, a solubility (mole fraction) (in n-butanol, 288.15 K) of 0.000907 and a solubility (mole fraction) (in n-butanol, 293.15 K) of 0.00113. It also gave a solubility (mole fraction) (in n-butanol, 298.15 K) of 0.00137, a solubility (mole fraction) (in n-butanol, 303.15 K) of 0.00169 and a solubility (mole fraction) (in n-butanol, 308.15 K) of 0.00206. It also gave a solubility (mole fraction) (in n-butanol, 313.15 K) of 0.00247, a solubility (mole fraction) (in n-butanol, 318.15 K) of 0.00304 and a solubility (mole fraction) (in n-butanol, 323.15 K) of 0.00398. For the same compound, the solubility (mole fraction) (in n-pentanol, 278.15 K) was 0.000228, the solubility (mole fraction) (in n-pentanol, 283.15 K) was 0.000359 and the solubility (mole fraction) (in n-pentanol, 288.15 K) was 0.000562. It also gave a solubility (mole fraction) (in n-pentanol, 293.15 K) of 0.00075, a solubility (mole fraction) (in n-pentanol, 298.15 K) of 0.000981 and a solubility (mole fraction) (in n-pentanol, 303.15 K) of 0.00121. The solubility (mole fraction) (in n-pentanol, 308.15 K) was 0.00164, the solubility (mole fraction) (in n-pentanol, 313.15 K) was 0.00212 and the solubility (mole fraction) (in n-pentanol, 318.15 K) was 0.00265. The solubility (mole fraction) (in n-pentanol, 323.15 K) was 0.00327, the solubility (mole fraction) (in n-propanol, 278.15 K) was 0.00115 and the solubility (mole fraction) (in n-propanol, 283.15 K) was 0.00151. For the same compound, the solubility (mole fraction) (in n-propanol, 288.15 K) was 0.00199, the solubility (mole fraction) (in n-propanol, 293.15 K) was 0.0025 and the solubility (mole fraction) (in n-propanol, 298.15 K) was 0.00255. It also gave a solubility (mole fraction) (in n-propanol, 303.15 K) of 0.00309, a solubility (mole fraction) (in n-propanol, 308.15 K) of 0.00364 and a solubility (mole fraction) (in n-propanol, 313.15 K) of 0.00454. For the same compound, the solubility (mole fraction) (in n-propanol, 318.15 K) was 0.00575, the solubility (mole fraction) (in n-propanol, 323.15 K) was 0.00708 and the solubility (mole fraction) (in water, 278.15 K) was 0.000935. The solubility (mole fraction) (in water, 283.15 K) was 0.001, the solubility (mole fraction) (in water, 288.15 K) was 0.00112 and the solubility (mole fraction) (in water, 293.15 K) was 0.00125. It also gave a solubility (mole fraction) (in water, 298.15 K) of 0.00135, a solubility (mole fraction) (in water, 303.15 K) of 0.0015 and a solubility (mole fraction) (in water, 308.15 K) of 0.00165. The solubility (mole fraction) (in water, 313.15 K) was 0.00173, the solubility (mole fraction) (in water, 318.15 K) was 0.00193 and the solubility (mole fraction) (in water, 323.15 K) was 0.00216.

— BigSolDB 2.1
